Assay results as given in ChEMBL document CHEMBL1127573, “Anticancer specificity of some ellipticinium salts against human brain tumors in vitro” (1994).

Legend:
Format in all cases: functional
[1] = species on record: Homo sapiens; experiment: TGI correlation coefficient value of the compound
[2] = species on record: Homo sapiens; experiment: Concentration yielding an amount of cellular protein at the end of the incubation that is the same as at the beginning of the incubation in full panel
[3] = species on record: Homo sapiens; experiment: Concentration yielding an amount of cellular protein at the end of the incubation that is the same as at the beginning of the incubation in brain tumor sub panel
[4] = Selective rating against brain tumor cell line panel; i selective (**) if (A/B)> 6 and TGI-Corr > 0.8
[5] = Selectivity rating against brain tumor cell line panel; i moderatelyselective (*) if 3< (A/B)< 6 and TGI-Corr > 0.8
[6] = Selectivity rating for brain tumor cell line panel; i selective (**) if (A/B)> 6 and TGI-Corr > 0.8

Compound | TGI correlation coefficient [1] | TGI concentration [2] [µM] | TGI concentration [3] [µM] | Selectivity rating [4] | Selectivity rating [5] | Selectivity rating [6]
CCN(CC)CC[n+]1ccc2c(C)c3[nH]c4ccccc4c3c(C)c2c1.[Br-] | 0.66 | 4.2 | 2.7 | – | – | –
Cc1c2cc[n+](C)cc2c(C)c2c1[nH]c1ccccc12 | – | – | – | Selective | – | –
COc1ccc2[nH]c3c(C)c4cc[n+](C)cc4c(C)c3c2c1 | – | – | – | Selective | – | –
CC(=O)[O-].Cc1c2cc[n+](C)cc2c(C)c2c1oc1ccccc12 | 0.89 | 20 | 5.5 | – | Moderately selective | –
Cc1c2ccncc2c(C)c2c1[nH]c1ccccc12 [ELLIPTECINE] | <0.5 | 3 | 2.9 | – | – | –
CS(=O)(=O)[O-].Cc1c2cc[n+](C)cc2c(C)c2c1[nH]c1ccccc12 | 0.86 | 11 | 1 | – | – | –
CC(=O)[O-].COc1ccc2[nH]c3c(C)c4cc[n+](C)cc4c(C)c3c2c1 | 0.94 | 18 | 2.1 | – | – | –
Cc1nccc2c(C)c3[nH]c4ccccc4c3cc12 | <0.5 | 3.6 | 3.7 | – | – | –
CCN(CC)CC[n+]1ccc2c(C)c3[nH]c4ccc(O)cc4c3c(C)c2c1.[Cl-] [DATELLIPTIUM CHLORIDE] | 0.78 | 34 | 16 | – | – | –
Cc1c2ccncc2c(C)c2c1[nH]c1ccc(Cl)cc12 | <0.5 | 17 | 16 | – | – | –
Cc1ccc2[nH]c3c(C)c4ccncc4c(C)c3c2c1 | <0.5 | 2.7 | 3.1 | – | – | –
CC(=O)[O-].Cc1c2cc[n+](C)cc2c(C)c2c1[nH]c1ccc(Cl)cc12 | 0.85 | 22 | 4.7 | – | Moderately selective | –
COc1ccc2[nH]c3c(C)c4ccncc4c(C)c3c2c1 | <0.5 | 3.2 | 3.6 | – | – | –
Cc1c2cc[n+](C)cc2c(C)c2c1[nH]c1ccccc12.[I-] | 0.96 | 12 | 1.4 | – | – | –
Cc1c2cc[n+](CCN3CCCCC3)cc2c(C)c2c1[nH]c1ccc(O)cc12 | 0.71 | 34 | 20 | – | – | –
CC(=O)[O-].Cc1c2cc[n+](C)c(C)c2cc2c1[nH]c1ccccc12 | 0.8 | 32 | 8.9 | – | – | Moderately selective
Cc1c2ccncc2c(C)c2c1[nH]c1ccc(O)cc12 | <0.5 | 2.8 | 3.4 | – | – | –
Cc1c2cc[n+]([O-])cc2c(C)c2c1[nH]c1ccccc12 | <0.5 | 62 | 41 | – | – | –
CC(=O)[O-].Cc1ccc2[nH]c3c(C)c4cc[n+](C)cc4c(C)c3c2c1 | 0.83 | 21 | 6.9 | – | Moderately selective | –
CC(=O)[O-].Cc1c2cc[n+](C)cc2c(C)c2c1[nH]c1ccc(O)cc12 [ELLIPTINIUM ACETATE] | <0.5 | 78 | 58 | – | – | –
Cc1c2cc[n+](Cc3ccc(I)cc3)cc2c(C)c2c1[nH]c1ccccc12.[Cl-] | <0.5 | 44 | 54 | – | – | –
COc1ccc2[nH]c3c(C)c4cc[n+](C)cc4c(C)c3c2c1.[I-] | 1 | 11 | 1.1 | – | – | –
C=CCCCCn1c2ccccc2c2c(C)c3c[n+](C)ccc3c(C)c21.CC(=O)[O-] | 0.6 | 2.9 | 1.8 | – | – | –
